Measured values published in patent US20250057853A1 (priority 2023, published 2025).

Details: Cohort 5: 4.0 g/kg via 15-minutes IV infusion

Structure (SMILES): Br.CN1[C@@H]2C[C@@H](OC(=O)[C@H](CO)c3ccccc3)C[C@H]1[C@@H]1O[C@@H]12.O.O.O [scopolamine HBr, scopolamine hydrobromide trihydrate]
- Number of TEAEs: 25 AEs
